In this test the test system is LG0703-F948-PDC spheroids with HUVEC/MSC, viability. Briefly: Anticancer human tumor LG0703-F948-PDC patient-derived lung adenocarcinoma cell line growth inhibition [IpAb]. Conditions: for viability, T/C: stronger effect = lower value. The method, boiled down:
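Multi-cell spheroids of 60% tumour cells, 25% HUVEC and 15% MSC in ultra-low-attachment U-bottom wells, treated with agents combined with ipatasertib or abemaciclib. Half-log ranges top out near clinical Cmax, or 10 microM when Cmax is unknown.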

The mark [1] stands for this setting: curve of first compound, second compound 0.1 µM.
[2] abbreviates: curve of first compound, second compound 0.316 µM.
The mark [3] stands for this setting: curve of first compound, second compound 1 µM.
[4] abbreviates: curve of first compound, second compound 3.16 µM.
[5] abbreviates: curve of first compound, second compound 10 µM.
The mark [6] stands for this setting: second compound 0.1 µM, first compound 0.0316 µM.
The mark [7] stands for this setting: second compound 0.1 µM, first compound 0.1 µM.
Setting [8] is: second compound 0.1 µM, first compound 0.316 µM.
The mark [9] stands for this setting: second compound 0.1 µM, first compound 1 µM.
The mark [10] stands for this setting: second compound 0.316 µM, first compound 0.0316 µM.
[11] abbreviates: second compound 0.316 µM, first compound 0.1 µM.
The mark [12] stands for this setting: second compound 0.316 µM, first compound 0.316 µM.
[13] abbreviates: second compound 0.316 µM, first compound 1 µM.
[14] abbreviates: second compound 1 µM, first compound 0.0316 µM.
The mark [15] stands for this setting: second compound 1 µM, first compound 0.1 µM.
Setting [16] is: second compound 1 µM, first compound 0.316 µM.
Where [17] appears, read: second compound 1 µM, first compound 1 µM.
The mark [18] stands for this setting: second compound 3.16 µM, first compound 0.0316 µM.
[19] abbreviates: second compound 3.16 µM, first compound 0.1 µM.
[20] abbreviates: second compound 3.16 µM, first compound 0.316 µM.
The mark [21] stands for this setting: second compound 3.16 µM, first compound 1 µM.
Setting [22] is: second compound 10 µM, first compound 0.0316 µM.
The mark [23] stands for this setting: second compound 10 µM, first compound 0.1 µM.
[24] abbreviates: second compound 10 µM, first compound 0.316 µM.
Where [25] appears, read: second compound 10 µM, first compound 1 µM.
The mark [26] stands for this setting: second compound 0.1 µM, first compound 3.16 µM.
Where [27] appears, read: second compound 0.1 µM, first compound 10 µM.
The mark [28] stands for this setting: second compound 0.316 µM, first compound 3.16 µM.
Setting [29] is: second compound 0.316 µM, first compound 10 µM.
The mark [30] stands for this setting: second compound 1 µM, first compound 3.16 µM.
The mark [31] stands for this setting: second compound 1 µM, first compound 10 µM.

Several values for one entry are separate records, joined by “and”; a condition that tells them apart may be missing. Equal values may be shown once. Where only a bound is given, the exact number is not on record here.
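Also: spheroids exposed to compounds for seven days before readout.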
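For viability, T/C in this document: T/C percent relative to DMSO vehicle wells set as 100% viability.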

By IC50 is commonly meant the concentration needed to halve the response being measured. The viability, T/C is the result in the treated group divided by that in the control group, in per cent. `COc1c(OCCCN2CCOCC2)ccc2c3n(c(=NC(=O)c4cnc(N)nc4)nc12)CCN3` + CC(C)NCC(C(=O)N1CCN(c2ncnc3c2C(C)CC3O)CC1)c1ccc(Cl)cc1: the IC50 runs as follows: under setting [1], 26.6 nM; under setting [2], 13.6 nM; under setting [3], 3.91 nM; under setting [4], below 3.16 nM; under setting [5], below 3.16 nM. Further, the viability, T/C runs as follows: (second compound 0.1 µM, first compound 0.00316 µM) 84.6%; (second compound 0.1 µM, first compound 0.01 µM) 70.1%; under setting [6], 47%; under setting [7], 21.8%; under setting [8], 6.53%; under setting [9], 4.98%. Moreover, the viability, T/C was 66.5% (second compound 0.316 µM, first compound 0.00316 µM); 51.5% (second compound 0.316 µM, first compound 0.01 µM); 39.8% under setting [10]; 15.7% under setting [11]; 5.88% under setting [12]; 3.95% under setting [13]. Besides, the viability, T/C (second compound 1 µM, first compound 0.00316 µM) is 52.1%; the viability, T/C (second compound 1 µM, first compound 0.01 µM) is 42.5%; the viability, T/C under setting [14] is 30.1%; the viability, T/C under setting [15] was 11.3%; the viability, T/C under setting [16] was 5.86%; the viability, T/C under setting [17] was 4.35%. Also, the viability, T/C reads like this: (second compound 3.16 µM, first compound 0.00316 µM) 41.9%; (second compound 3.16 µM, first compound 0.01 µM) 35.7%; under setting [18], 19.8%; under setting [19], 11.6%; under setting [20], 4.56%; under setting [21], 4.47%. The viability, T/C (second compound 10 µM, first compound 0.00316 µM) is 38.6%; the viability, T/C (second compound 10 µM, first compound 0.01 µM) is 28.4%; the viability, T/C under setting [22] was 25.3%; the viability, T/C under setting [23] is 7.44%; the viability, T/C under setting [24] was 3.76%; the viability, T/C under setting [25] was 2.45%.
For the compound `Cn1nccc1Nc1nccc(-c2ccn(C(CO)c3ccc(Cl)c(F)c3)c(=O)c2)n1` (centres undefined) + CCN1CCN(Cc2ccc(Nc3ncc(F)c(-c4cc(F)c5nc(C)n(C(C)C)c5c4)n3)nc2)CC1, the IC50 by setting is: (curve of first compound, second compound 0.01 µM) above 10000 nM; (curve of first compound, second compound 0.0316 µM) 6420 nM; under setting [1], above 10000 nM; under setting [2], 7430 nM; under setting [3], above 10000 nM. The viability, T/C is 90.8% (second compound 0.01 µM, first compound 0.0316 µM); 77% (second compound 0.01 µM, first compound 0.1 µM); 78.3% (second compound 0.01 µM, first compound 0.316 µM); 67.7% (second compound 0.01 µM, first compound 1 µM); 76.7% (second compound 0.01 µM, first compound 3.16 µM); 68% (second compound 0.01 µM, first compound 10 µM). The viability, T/C runs as follows: (second compound 0.0316 µM, first compound 0.0316 µM) 89.9%; (second compound 0.0316 µM, first compound 0.1 µM) 77.5%; (second compound 0.0316 µM, first compound 0.316 µM) 65%; (second compound 0.0316 µM, first compound 1 µM) 63%; (second compound 0.0316 µM, first compound 3.16 µM) 76.6%; (second compound 0.0316 µM, first compound 10 µM) 34.8%. The viability, T/C was 81.9% under setting [6]; 73.4% under setting [7]; 55.9% under setting [8]; 58.9% under setting [9]; 62.3% under setting [26]; 46.6% under setting [27]. The viability, T/C is 73% under setting [10]; 77.2% under setting [11]; 56.6% under setting [12]; 69.2% under setting [13]; 63.4% under setting [28]; 45.4% under setting [29]. Moreover, the viability, T/C was 73.9% under setting [14]; 64.2% under setting [15]; 45.9% under setting [16]; 61.6% under setting [17]; 66.2% under setting [30]; 51% under setting [31].
In the case of `Cc1nc(NC(=O)N2CCCC2C(N)=O)sc1-c1ccnc(C(C)(C)C(F)(F)F)c1` (centres undefined), the viability, T/C is, setting by setting: (compound 0.0316 µM) 93.3% and 92%; (compound 0.1 µM) 85.5% and 87.4%; (compound 0.316 µM) 77.1% and 72.5%; (compound 1 µM) 53.9% and 63.8%; (compound 3.16 µM) 28% and 30.2%; (compound 10 µM) 3.02% and 2.66%. Under “curve of compound”, the IC50 is 1230 nM and 1480 nM.
`CCCS(=O)(=O)Nc1ccc(F)c(C(=O)c2c[nH]c3ncc(-c4ccc(Cl)cc4)cc23)c1F` + CC(C)NCC(C(=O)N1CCN(c2ncnc3c2C(C)CC3O)CC1)c1ccc(Cl)cc1: the IC50 under setting [1] is above 10000 nM; the IC50 under setting [2] was above 10000 nM; the IC50 under setting [3] is 3780 nM; the IC50 under setting [4] is below 31.6 nM; the IC50 under setting [5] was below 31.6 nM. Moreover, the viability, T/C under setting [6] was 85.5%; the viability, T/C under setting [7] is 89.6%; the viability, T/C under setting [8] was 85%; the viability, T/C under setting [9] was 91.2%; the viability, T/C under setting [26] is 86.2%; the viability, T/C under setting [27] is 67.5%. The viability, T/C is 69.2% under setting [10]; 71.7% under setting [11]; 68.4% under setting [12]; 78.2% under setting [13]; 75% under setting [28]; 55.6% under setting [29]. Moreover, the viability, T/C by setting is: under setting [14], 54.1%; under setting [15], 49.6%; under setting [16], 50%; under setting [17], 52.1%; under setting [30], 56.9%; under setting [31], 36.5%. In addition, the viability, T/C is 41.1% under setting [18]; 42.8% under setting [19]; 45% under setting [20]; 46.3% under setting [21]; 49.6% (second compound 3.16 µM, first compound 3.16 µM); 25.6% (second compound 3.16 µM, first compound 10 µM). Also, the viability, T/C was 35.6% under setting [22]; 39.7% under setting [23]; 38.3% under setting [24]; 45.1% under setting [25]; 44% (second compound 10 µM, first compound 3.16 µM); 7.66% (second compound 10 µM, first compound 10 µM).
In the case of `Cn1cnc2c(F)c(Nc3ccc(Br)cc3Cl)c(C(=O)NOCCO)cc21`, the viability, T/C (compound 0.00949 µM) was 85.5% and 87.7%; the viability, T/C (compound 0.03 µM) is 64.7% and 68.2%; the viability, T/C (compound 0.0949 µM) is 53.1% and 54.3%; the viability, T/C (compound 0.3 µM) is 50.3% and 50.7%; the viability, T/C (compound 0.949 µM) is 37.5% and 43.6%; the viability, T/C (compound 3 µM) is 35.4% and 42.1%. Where the note is “curve of compound”, the IC50 is 166 nM and 234 nM.

For the origin of these results see PubChem BioAssay AID2060330 (Molecular Pharmacology Branch, DTP, NCI, 2025).
